These results are taken from patent publication US20230167127A1, “COMPOUNDS AND THEIR USE IN THE TREATMENT OF BACTERIAL INFECTION” (Hoffmann-La Roche Inc., priority 2020, published 2023).

Some results are limits rather than exact numbers.

The first test relates to Escherichia coli ATCC 25922. The test is described as follows: 50% growth inhibitory concentration (IC50) determination, Iso-Sensitest broth dilution. As to conditions: Escherichia coli, ATCC25922, 16 h, strain Escherichia coli ATCC 25922; 10-point broth dilution, optical density at 600 nm over 16 h; read-out: Escherichia coli growth inhibition IC50. The format is cell-based. In outline:
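Growth was tracked as optical density at 600 nm every 20 minutes for 16 h at 35±2° C. Compounds from DMSO stocks were serially diluted twofold over 10 points (e.g. 50–0.097 μM final) in Iso-Sensitest broth. Inhibition computed in log-phase growth to give IC50.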
Take `CCNC(=O)COc1cc(F)c2c(c1)CC(CNCCC1CN(c3cnc4c(n3)NC(=O)CO4)C(=O)O1)C2` (stereo not shown) [Example 308, N-ethyl-2-[[7-fluoro-2-[[2-[2-oxo-3-(3-oxo-4H-pyrazino[2,3-b][1,4]oxazin-6-yl)-1,3-oxazolidin-5-yl]ethylamino]methyl]-2,3-dihydro-1H-inden-5-yl]oxy]acetamide; formic acid]: the IC50 was 471 nM.
As for `Cc1ncc(F)c2c1CC(CNCCc1nn(-c3ccc4c(c3)NC(=O)CO4)c(=O)o1)C2` (stereo not shown) [Example 67, 6-[5-[2-[(4-fluoro-1-methyl-6,7-dihydro-5H-cyclopenta[c]pyridin-6-yl)methylamino]ethyl]-2-oxo-1,3,4-oxadiazol-3-yl]-4H-1,4-benzoxazin-3-one], the IC50 is 249 nM.
Take `N#Cc1cccc2c1CC(NCCCC1CN(c3ccc4c(n3)NC(=O)CO4)C(=O)O1)C2` (stereo not shown) [Example 13, 2-[3-[2-oxo-3-(3-oxo-4H-pyrido[3,2-b] [1,4]oxazin-6-yl)-1,3-oxazolidin-5-yl]propylamino]-2,3-dihydro-1H-indene-4-carbonitrile; formic acid]: the IC50 is below 97.7 nM.
Still for that read-out and setting: then `O=C1COc2ncc(N3CC(CCNCC4Cc5cc(OCCN6C(=O)CCC6=O)cc(F)c5C4)OC3=O)nc2N1` (stereo not shown) [Example 345], with 659 nM; and `N#Cc1cccc2c1CC(CNCCC1CN(c3ncc4c(n3)NC(=O)CO4)C(=O)O1)C2` (stereo not shown) [Example 289, 2-[[2-[2-oxo-3-(7-oxo-8H-pyrimido [5,4-b] [1,4]oxazin-2-yl)-1,3-oxazolidin-5-yl]ethylamino]methyl]-2,3-dihydro-1H-indene-4-carbonitrile], with below 97.7 nM.
Consider `Cc1nc(OCCCS(C)(=O)=O)c(C)c2c1CC(CNCCC1CN(c3ccc4c(n3)NC(=O)CO4)C(=O)O1)C2` (stereo not shown) [Example 105, 6-[5-[2-[[1,4-dimethyl-3-(3-methylsulfonylpropoxy)-6,7-dihydro-5H-cyclopenta[c]pyridin-6-yl]methylamino]ethyl]-2-oxo-1,3-oxazolidin-3-yl]-4H-pyrido[3,2-b][1,4]oxazin-3-one], for which the IC50 was 1110 nM.
Consider `N#Cc1cccc2c1C(O)C(CNCCC1CN(c3ccc4c(n3)NC(=O)CO4)C(=O)O1)C2` (racemic) [Example 151, rac-2,3-trans-3-hydroxy-2-[[2-[2-oxo-3-(3-oxo-4H-pyrido[3,2-b][1,4]oxazin-6-yl)-1,3-oxazolidin-5-yl]ethylamino]methyl]-2,3-dihydro-1H-indene-4-carbonitrile; formic acid], for which the IC50 amounted to 140 nM.
Consider `Cc1ncc(F)c2c1C[C@@H](CNCC[C@@H]1CN(c3cnc4c(n3)NC(=O)CO4)C(=O)O1)C2` [Example 427, 6-[(5R)-5-[2-[[(6R)-4-Fluoro-1-methyl-6,7-dihydro-5H-cyclopenta[c]pyridin-6-yl]methylamino]ethyl]-2-oxo-1,3-oxazolidin-3-yl]-4H-pyrazino[2,3-b][1,4]oxazin-3-one], for which the IC50 was below 97.7 nM.
For `NCCOc1ncc2c(c1Cl)CC(CNCCC1CN(c3ccc4c(n3)NC(=O)CO4)C(=O)O1)C2` (stereo not shown) [Example 174, 6-[5-[2-[[3-(2-aminoethoxy)-4-chloro-6,7-dihydro-5H-cyclopenta[c]pyridin-6-yl]methylamino]ethyl]-2-oxo-1,3-oxazolidin-3-yl]-4H-pyrido[3,2-b][1,4]oxazin-3-one], the IC50 is below 97.7 nM.
On the same count and under the same terms, then `CNC(=O)COc1cc(C)c2c(c1C#N)CC(CNCCC1CN(c3cnc4c(n3)NC(=O)CO4)C(=O)O1)C2` (stereo not shown) [Example 384, 2-[[4-cyano-7-methyl-2-[[2-[2-oxo-3-(3-oxo-4H-pyrazino[2,3-b][1,4]oxazin-6-yl)-1,3-oxazolidin-5-yl]ethylamino]methyl]-2,3-dihydro-1H-inden-5-yl]oxy]-N-methylacetamide], with 167 nM.
`NC1c2cccc(Cl)c2CC1CN[C@H]1C[C@@]2(CN(c3ccc4c(n3)NC(=O)CO4)C(=O)O2)C1` (mixture of isomers) [Example 211, 2,4-trans-6-[6-oxo-2-[[rac-1,2-trans-1-amino-4-chloro-2,3-dihydro-1H-inden-2-yl]methylamino]-5-oxa-7-azaspiro[3.4]octan-7-yl]-4H-pyrido[3,2-b][1,4]oxazin-3-one]: the IC50 was below 97.7 nM.
Take `CCOC(=O)c1cn(CC)c2c3c(c(F)cc2c1=O)CC(CNCCC1CN(c2ccc4c(n2)NC(=O)CO4)C(=O)O1)C3` (stereo not shown) [Example 225, ethyl 1-ethyl-6-fluoro-4-oxo-8-[[2-[2-oxo-3-(3-oxo-4H-pyrido[3,2-b][1,4]oxazin-6-yl)-1,3-oxazolidin-5-yl]ethylamino]methyl]-8,9-dihydro-7H-cyclopenta[h]quinoline-3-carboxylate]: the IC50 worked out at 547 nM.
As to `NC1c2c(Cl)cccc2CC1CNCCC1CN(c2ccc3c(n2)NC(=O)CO3)C(=O)O1` (racemic) [Example 168, 6-[2-oxo-5-[2-[[rac-1,2-trans-1-amino-7-chloro-2,3-dihydro-1H-inden-2-yl]methylamino]ethyl]-1,3-oxazolidin-3-yl]-4H-pyrido[3,2-b][1,4]oxazin-3-one; formic acid], the IC50 is below 97.7 nM.
As to `N#Cc1cc(OCc2cc[nH]n2)cc2c1CC(CNCCC1CN(c3cnc4c(n3)NC(=O)CO4)C(=O)O1)C2` (stereo not shown) [Example 404, 2-[[2-[2-oxo-3-(3-oxo-4H-pyrazino[2,3-b][1,4]oxazin-6-yl)-1,3-oxazolidin-5-yl]ethylamino]methyl]-6-(1H-pyrazol-3-ylmethoxy)-2,3-dihydro-1H-indene-4-carbonitrile; formic acid], the IC50 is below 97.7 nM.
With `Cc1ncc(F)c2c1CC(CCNCC1CN(c3cnc4c(n3)NC(=O)CO4)C(=O)O1)C2` (stereo not shown) [Example 265, 6-[5-[[2-(4-Fluoro-1-methyl-6,7-dihydro-5H-cyclopenta[c]pyridin-6-yl)ethylamino]methyl]-2-oxo-1,3-oxazolidin-3-yl]-4H-pyrazino[2,3-b][1,4]oxazin-3-one; formic acid], the IC50 was below 97.7 nM.
Still for that read-out and setting: then `O=C1COc2ncc(N3CC(CCNCC4Cc5c(F)cnc(-c6cnc[nH]6)c5C4)OC3=O)nc2N1` (stereo not shown) [Example 433, 6-[5-[2-[[4-Fluoro-1-(1H-imidazol-5-yl)-6,7-dihydro-5H-cyclopenta[c]pyridin-6-yl]methylamino]ethyl]-2-oxo-1,3-oxazolidin-3-yl]-4H-pyrazino[2,3-b][1,4]oxazin-3-one], with below 97.7 nM; and `N#Cc1cccc2c1CC(CNCCC1CN(c3ccc4c(n3)NC(=O)CO4)C(=O)O1)C2N` (racemic) [Example 228, rac-1,2-trans-1-Amino-2-[[2-[2-oxo-3-(3-oxo-4H-pyrido[3,2-b][1,4]oxazin-6-yl)-1,3-oxazolidin-5-yl]ethylamino]methyl]-2,3-dihydro-1H-indene-4-carbonitrile], with 174 nM.
As for `N#CCOc1cc(F)c2c(c1)CC(CNCCC1CN(c3cnc4c(n3)NC(=O)CO4)C(=O)O1)C2` (stereo not shown) [Example 366, 2-[[7-fluoro-2-[[2-[2-oxo-3-(3-oxo-4H-pyrazino[2,3-b][1,4]oxazin-6-yl)-1,3-oxazolidin-5-yl]ethylamino]methyl]-2,3-dihydro-1H-inden-5-yl]oxy]acetonitrile; formic acid], the IC50 amounted to 144 nM.
In the case of `Cc1ncc(F)c2c1CC(NC1CC(C3CN(c4cnc5c(n4)NC(=O)CO5)C(=O)O3)C1)C2` (single isomer, unassigned; isomer a) [Example 328, 6-[5-[3-[(4-fluoro-1-methyl-6,7-dihydro-5H-cyclopenta[c]pyridin-6-yl)amino]cyclobutyl]-2-oxo-1,3-oxazolidin-3-yl]-4H-pyrazino[2,3-b][1,4]oxazin-3-one, Isomer A], the IC50 worked out at 885 nM.
On to `CNC(=O)COc1nc(C)c2c(c1C)CC(CNCCC1CN(c3ccc4c(n3)NC(=O)CO4)C(=O)O1)C2` (stereo not shown) [Example 110, 2-[[1,4-dimethyl-6-[[2-[2-oxo-3-(3-oxo-4H-pyrido[3,2-b][1,4]oxazin-6-yl)-1,3-oxazolidin-5-yl]ethylamino]methyl]-6,7-dihydro-5H-cyclopenta[c]pyridin-3-yl]oxy]-N-methylacetamide], for which the IC50 is 311 nM.
On the same count and under the same terms, the result for `CONC(=O)COc1cc(F)c2c(c1)CC(CNCCC1CN(c3cnc4c(n3)NC(=O)CO4)C(=O)O1)C2` (stereo not shown) [Example 311, 2-[[7-Fluoro-2-[[2-[2-oxo-3-(3-oxo-4H-pyrazino[2,3-b][1,4]oxazin-6-yl)-1,3-oxazolidin-5-yl]ethylamino]methyl]-2,3-dihydro-1H-inden-5-yl]oxy]-N-methoxyacetamide; formic acid] reads 382 nM; that for `N#Cc1c(OCC2CNC2)ccc2c1CC(CNCCC1CN(c3ccc4c(n3)NC(=O)CO4)C(=O)O1)C2` (stereo not shown) [Example 129, 5-(azetidin-3-ylmethoxy)-2-[[2-[2-oxo-3-(3-oxo-4H-pyrido[3,2-b][1,4]oxazin-6-yl)-1,3-oxazolidin-5-yl]ethylamino]methyl]-2,3-dihydro-1H-indene-4-carbonitrile; formic acid], 692 nM; that for `N#Cc1cccc2c1CC(CNCCC1CN(c3cnc4c(c3)NC(=O)CO4)C(=O)O1)C2` (stereo not shown) [Example 46, 2-[[2-[2-oxo-3-(2-oxo-1H-pyrido[2,3-b][1,4]oxazin-7-yl)-1,3-oxazolidin-5-yl]ethylamino]methyl]-2,3-dihydro-1H-indene-4-carbonitrile], 356 nM.
On to `N#Cc1cc(OCC2CCN2)cc2c1CC(CNCCC1CN(c3ccc4c(n3)NC(=O)CO4)C(=O)O1)C2` (stereo not shown) [Example 187, 6-(azetidin-2-ylmethoxy)-2-[[2-[2-oxo-3-(3-oxo-4H-pyrido[3,2-b][1,4]oxazin-6-yl)-1,3-oxazolidin-5-yl]ethylamino]methyl]-2,3-dihydro-1H-indene-4-carbonitrile], for which the IC50 was 121 nM.

Still in this test, the particulars now being: strain Escherichia coli ATCC 25922; 10-point broth dilution, optical density at 600 nm over 16 h; read-out: Escherichia coli growth inhibition IC50.
In the case of `NC(=O)COc1cc(F)c2c(c1)CC(CNCC[C@H]1CN(c3cnc4c(n3)NC(=O)CO4)C(=O)O1)C2` (single isomer, unassigned; isomer b) [Example 380], the IC50 is below 97.7 nM.
